Data taken from ChEMBL document CHEMBL2151021, “Novel amide- and sulfonamide-based aromatic ethanolamines: effects of various substituents on the inhibition of acid and neutral ceramidases” (Bioorg Med Chem, 2012).
The source made the active and inactive calls. The calls are words filed in the database; no cut-off is given here.

What was measured:
[1] = target: T1, Acid ceramidase (Homo sapiens) (UniProt Q13510); assay: Inhibition of recombinant human aCDase expressed in Sf9 cells using fluorescently-labeled acyl-NBD-C12-ceramide as substrate at 80 uM after 8 hrs by fluorescence assay
T1 sequence (whole entry): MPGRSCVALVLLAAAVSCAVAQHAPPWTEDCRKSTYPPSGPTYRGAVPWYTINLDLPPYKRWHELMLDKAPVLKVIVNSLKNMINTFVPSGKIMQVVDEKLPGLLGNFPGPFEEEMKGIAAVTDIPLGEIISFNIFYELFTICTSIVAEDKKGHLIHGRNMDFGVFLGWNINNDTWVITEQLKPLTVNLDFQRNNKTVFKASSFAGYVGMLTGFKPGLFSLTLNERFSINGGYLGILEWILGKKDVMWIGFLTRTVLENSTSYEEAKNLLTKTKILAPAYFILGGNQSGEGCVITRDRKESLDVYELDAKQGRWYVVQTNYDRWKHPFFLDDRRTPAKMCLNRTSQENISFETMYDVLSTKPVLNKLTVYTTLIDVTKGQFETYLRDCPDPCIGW

[2] = target: T2, Acid ceramidase (Homo sapiens, UniProt Q13510); assay: Inhibition of aCDase
T2 sequence (Q13510 whole entry): T1 sequence (whole entry)

[3] = target: T2, Acid ceramidase; assay: Inhibition of aCDase expressed in human HL60 cell extract; type: cell-free, HL-60
[4] = target: Neutral ceramidase (Homo sapiens) (UniProt Q9NR71); assay: Inhibition of recombinant human nCDase expressed in Sf9 cells using fluorescently-labeled acyl-NBD-C12-ceramide as substrate at 80 uM after 2 hrs by fluorescence assay
Chain of Neutral ceramidase (Homo sapiens) (Q9NR71 whole entry): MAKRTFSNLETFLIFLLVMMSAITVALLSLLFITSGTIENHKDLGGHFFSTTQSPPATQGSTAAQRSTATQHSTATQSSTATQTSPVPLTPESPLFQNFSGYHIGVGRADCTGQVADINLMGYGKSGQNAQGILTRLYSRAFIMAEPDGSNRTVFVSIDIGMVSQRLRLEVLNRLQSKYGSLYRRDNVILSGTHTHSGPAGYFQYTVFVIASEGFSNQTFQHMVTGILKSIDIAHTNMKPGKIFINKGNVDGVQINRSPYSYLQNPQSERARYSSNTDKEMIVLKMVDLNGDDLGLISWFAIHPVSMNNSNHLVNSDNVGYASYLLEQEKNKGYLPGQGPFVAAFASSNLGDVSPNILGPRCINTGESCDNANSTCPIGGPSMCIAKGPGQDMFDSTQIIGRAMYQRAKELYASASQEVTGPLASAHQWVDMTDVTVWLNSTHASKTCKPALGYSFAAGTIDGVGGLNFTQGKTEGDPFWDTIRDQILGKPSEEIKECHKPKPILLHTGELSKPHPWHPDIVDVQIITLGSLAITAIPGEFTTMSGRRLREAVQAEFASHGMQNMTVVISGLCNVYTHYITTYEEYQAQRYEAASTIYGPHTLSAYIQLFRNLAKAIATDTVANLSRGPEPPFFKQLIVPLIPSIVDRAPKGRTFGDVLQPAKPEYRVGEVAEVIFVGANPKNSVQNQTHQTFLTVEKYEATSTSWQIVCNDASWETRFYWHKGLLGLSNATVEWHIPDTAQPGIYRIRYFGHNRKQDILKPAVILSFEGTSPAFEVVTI

[5] = target: Neutral ceramidase (Homo sapiens) (UniProt Q9NR71); assay: Activity of recombinant human nCDase expressed in Sf9 cells at 300 uM after 2 hrs by fluorescence assay

Compound	inhibition [1]	IC50 [2]	IC50 [3]	inhibition [4]	Activity [5]
CCCCCCCCCCCCCC(=O)NCC(=O)c1ccc(C)cc1	Active	–	–	Active	–
CCCCCCCCCCCCCC(=O)NCC(=O)c1cccc(C)c1	Active	–	–	Active	–
CCCCCCCCCCCCS(=O)(=O)N[C@H](C)[C@@H](O)c1ccccc1	Active	–	–	Active	–
CCCCCCCCCCCCS(=O)(=O)N[C@H](CO)[C@H](O)c1ccc([N+](=O)[O-])cc1	Active	–	–	–	–
CCCCCCCCCCCCCC(=O)NCC(O)c1ccc(C(C)(C)C)cc1 (racemic)	Active	–	–	inactive	–
CCCCCCCCCCCCCC(=O)NCC(O)c1ccc(CCC)cc1 (racemic)	Active	–	–	inactive	–
CCCCCCCCCCCCCC(=O)NCC(O)c1ccc(O)cc1 (racemic)	Active	–	–	–	–
CCCCCCCCCCCCCC(=O)NCC(O)c1cccc(O)c1 (racemic)	Active	–	–	–	–
CCCCCCCCCCCCCC(=O)NCC(O)c1cccc(OC)c1 (racemic)	inactive	–	–	Active	–
CCCCCCCCCCCCS(=O)(=O)NCC(O)c1ccc(C)cc1 (racemic)	Active	–	–	Active	inactive
CCCCCCCCCCCCS(=O)(=O)NCC(O)c1ccccc1 (racemic)	Active	–	–	Active	–
CCCCCCCCCCCCS(=O)(=O)NCC(O)c1ccncc1 (racemic)	Active	–	–	Active	–

Second part, the compound after the results:

inhibition [1]	IC50 [2]	IC50 [3]	inhibition [4]	Activity [5]	Compound
Active	10 µM	–	–	–	CCCCCCCCCCCCCC(=O)N[C@H](CO)[C@H](O)c1ccc([N+](=O)[O-])cc1
Active	–	1 µM	–	–	CCCCCCCCCCCCCC(=O)N[C@H](C)[C@@H](O)c1ccccc1
Active	–	–	Active	inactive	CCCCCCCCCCCCCC(=O)NCC(O)c1ccc(C)cc1 (racemic)
Active	–	–	–	–	CCCCCCCCCCCCCC(=O)NCC(O)c1ccc(CC)cc1 (racemic)
inactive	–	–	–	–	CCCCCCCCCCCCCC(=O)NCC(O)c1ccc(CCCC)cc1 (racemic)
inactive	–	–	Active	–	CCCCCCCCCCCCCC(=O)NCC(O)c1ccc(OC)cc1 (racemic)
Active	–	–	–	–	CCCCCCCCCCCCCC(=O)NCC(O)c1cccc(C)c1 (racemic)
Active	–	–	–	–	CCCCCCCCCCCCCC(=O)NCC(O)c1ccccc1 (racemic)
Active	–	–	Active	–	CCCCCCCCCCCCCC(=O)NCC(O)c1cccnc1 (racemic)
Active	–	–	Active	–	CCCCCCCCCCCCCC(=O)NCC(O)c1ccncc1 (racemic)
Active	–	–	Active	–	CCCCCCCCCCCCS(=O)(=O)NCC(O)c1cccnc1 (racemic)
Active	–	–	Active	–	CCCCCCCCCCCCCC(=O)NCC(O)c1ccc(C)cc1 (single isomer, unassigned; (-))
Active	–	–	Active	–	CCCCCCCCCCCCCC(=O)NCC(O)c1ccc(C)cc1 (stereo in doubt)
